The supplement of paper PMC10307832

Columns and labels:
Assay in all cases: relative viability (nuclei count vs DMSO), 5 days (fraction); higher = more cells survive
RU-SKI 43 + Tozasertib = compound: CC[C@@H](C)CNCC(=O)N1CCC2=C([C@@H]1COC3=CC=CC(=C3)C)C=CS2 [RU-SKI 43] + Cc1cc(Nc2cc(N3CCN(C)CC3)nc(Sc3ccc(NC(=O)C4CC4)cc3)n2)n[nH]1 [Tozasertib] (partner 0.1 µM)
In short: (§1)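 Medians of duplicate plates are given as relative viability. That measure is the nuclei count in treated wells divided by the count in vehicle wells. Counts were taken on 4× images of lung cancer cell lines in 1536-well plates, 5 days after pin-tool dosing the day after seeding with one drug alone or a fixed anchor-drug dose plus five library-drug doses (not always all listed) in √10 steps.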

MK-8033 + Olaparib = compound: Cn1cc(-c2cnc3ccc4ccc(CS(=O)(=O)NCc5ccccn5)cc4c(=O)c3c2)cn1 [MK-8033] + O=C(c1cc(Cc2n[nH]c(=O)c3ccccc23)ccc1F)N1CCN(C(=O)C2CC2)CC1 [Olaparib] (partner 8 µM)
In short: as §1

MK-8033 + Pictilisib = compound: Cn1cc(-c2cnc3ccc4ccc(CS(=O)(=O)NCc5ccccn5)cc4c(=O)c3c2)cn1 [MK-8033] + CS(=O)(=O)N1CCN(Cc2cc3nc(-c4cccc5[nH]ncc45)nc(N4CCOCC4)c3s2)CC1 [Pictilisib] (partner 1 µM)
In short: as §1

MK-8033 + Bortezomib = compound: Cn1cc(-c2cnc3ccc4ccc(CS(=O)(=O)NCc5ccccn5)cc4c(=O)c3c2)cn1 [MK-8033] + CC(C)C[C@H](NC(=O)[C@H](Cc1ccccc1)NC(=O)c1cnccn1)B(O)O [Bortezomib] (partner 0.002 µM)
In short: as §1

Row | Cell Line | relative viability (RU-SKI 43 + Tozasertib; first compound 0.1 µM) | relative viability (RU-SKI 43 + Tozasertib; first compound 0.3162 µM) | relative viability (RU-SKI 43 + Tozasertib; first compound 1 µM) | relative viability (RU-SKI 43 + Tozasertib; first compound 3.162 µM) | relative viability (RU-SKI 43 + Tozasertib; first compound 10 µM) | relative viability (MK-8033 + Olaparib; first compound 0.02 µM) | relative viability (MK-8033 + Olaparib; first compound 0.06325 µM) | relative viability (MK-8033 + Olaparib; first compound 0.2 µM) | relative viability (MK-8033 + Olaparib; first compound 0.6325 µM) | relative viability (MK-8033 + Olaparib; first compound 2 µM) | relative viability (MK-8033 + Pictilisib; first compound 0.02 µM) | relative viability (MK-8033 + Pictilisib; first compound 0.06325 µM) | relative viability (MK-8033 + Pictilisib; first compound 0.2 µM) | relative viability (MK-8033 + Pictilisib; first compound 0.6325 µM) | relative viability (MK-8033 + Pictilisib; first compound 2 µM) | relative viability (MK-8033 + Bortezomib; first compound 0.02 µM) | relative viability (MK-8033 + Bortezomib; first compound 0.06325 µM) | relative viability (MK-8033 + Bortezomib; first compound 0.2 µM) | relative viability (MK-8033 + Bortezomib; first compound 0.6325 µM) | relative viability (MK-8033 + Bortezomib; first compound 2 µM)
1 | ABC-1 | 0.16 | 0.172 | 0.18 | 0.166 | 0.185 | 1.07 | 0.746 | 0.838 | 0.939 | 0.898 | 0.969 | 0.564 | 0.689 | 0.674 | 0.699 | 0.307 | 0.263 | 0.319 | 0.337 | 0.313
2 | NCI-H2023 | 0.32 | 0.438 | 0.516 | 0.424 | 0.218 | 0.534 | 0.415 | 0.439 | 0.493 | 0.396 | 0.264 | 0.194 | 0.186 | 0.219 | 0.179 | 1.06 | 0.89 | 0.852 | 0.96 | 0.778
3 | PC-14 | 0.635 | 0.522 | 0.7 | 0.554 | 0.471 | 0.249 | 0.27 | 0.299 | 0.321 | 0.271 | 0.652 | 0.514 | 0.738 | 0.545 | 0.623 | 0.898 | 0.742 | 0.816 | 0.809 | 0.772
4 | ChaGo-K-1 | 0.234 | 0.203 | 0.221 | 0.22 | 0.231 | 0.442 | 0.412 | 0.415 | 0.433 | 0.372 | 0.717 | 0.652 | 0.654 | 0.713 | 0.615 | 1.37 | 0.756 | 0.98 | 1.02 | 0.926
5 | NCI-H650 | 0.724 | 0.717 | 0.765 | 0.709 | 0.654 | 0.412 | 0.364 | 0.403 | 0.399 | 0.335 | 0.849 | 0.824 | 0.871 | 0.723 | 0.834 | 0.858 | 0.745 | 0.737 | 0.794 | 0.886
6 | EBC-1 | – | – | – | – | – | 0.659 | 0.565 | 0.792 | 0.648 | 0.568 | 0.354 | 0.314 | 0.222 | 0.195 | 0.144 | 0.532 | 0.489 | 0.597 | 0.563 | 0.309
7 | NCI-H2228 | 0.256 | 0.264 | 0.184 | 0.249 | 0.255 | 0.79 | 0.568 | 0.52 | 0.865 | 0.619 | 0.397 | 0.599 | 0.356 | 0.336 | 0.357 | 1.04 | 0.932 | 1.08 | 0.998 | 1.06
8 | NCI-H1703 | – | – | – | – | – | 0.385 | 0.304 | 0.524 | 0.336 | 0.598 | 0.238 | 0.244 | 0.255 | 0.223 | 0.248 | 0.401 | 0.302 | 0.268 | 0.307 | 0.298
9 | NCI-H358 | 0.109 | 0.106 | 0.0941 | 0.103 | 0.0859 | 0.561 | 0.553 | 0.577 | 0.715 | 0.57 | 0.306 | 0.344 | 0.331 | 0.395 | 0.227 | – | – | – | – | –
10 | NCI-H1793 | 0.333 | 0.321 | 0.344 | 0.324 | 0.281 | 0.863 | – | 0.688 | 0.894 | 0.94 | 0.32 | – | 0.286 | 0.307 | 0.258 | – | – | – | – | –
11 | SW 900 | 0.671 | 0.553 | 0.54 | 0.45 | 0.512 | 0.851 | 0.876 | 0.852 | 0.788 | 0.812 | – | – | – | – | – | – | – | – | – | –
12 | A549 | – | – | – | – | – | 0.34 | 0.275 | 0.267 | 0.305 | 0.336 | 0.519 | 0.491 | 0.387 | 0.47 | 0.409 | – | – | – | – | –
13 | NCI-H1563 | – | – | – | – | – | – | – | – | – | – | 0.617 | 0.63 | 0.648 | 0.659 | 0.705 | 0.951 | 0.823 | 0.857 | 0.833 | 0.838
14 | NCI-H2170 | 0.701 | 0.953 | 0.751 | 0.722 | 0.701 | 0.602 | 0.539 | 0.648 | 0.59 | 0.536 | 0.382 | 0.291 | 0.293 | 0.32 | 0.302 | – | – | – | – | –
15 | NCI-H1623 | 0.447 | 0.42 | 0.71 | 0.386 | 0.399 | – | – | – | – | – | – | – | – | – | – | – | – | – | – | –
16 | SK-MES-1 | 0.9 | 1.14 | 1.04 | 0.924 | 0.754 | 0.682 | 0.658 | 0.677 | 0.76 | 0.717 | 0.334 | 0.301 | 0.328 | 0.405 | 0.349 | – | – | – | – | –
17 | NCI-H1944 | 0.251 | 0.27 | 0.257 | 0.251 | 0.23 | 0.402 | 0.365 | 0.39 | 0.39 | 0.415 | 0.35 | – | 0.347 | 0.346 | 0.34 | – | – | – | – | –
18 | IA-LM | – | – | – | – | – | 0.749 | 0.764 | 0.786 | 0.756 | 0.767 | 0.356 | 0.273 | 0.293 | 0.286 | 0.289 | 0.791 | 0.746 | 0.83 | 0.782 | 0.802
19 | NCI-H2342 | 0.489 | 0.528 | 0.502 | 0.441 | 0.516 | 0.448 | 0.393 | 0.507 | 0.424 | 0.418 | – | – | – | – | – | – | – | – | – | –
20 | LK-2 | 0.186 | 0.156 | 0.165 | 0.181 | 0.171 | 0.974 | 0.694 | 0.765 | 0.678 | 0.81 | 0.629 | 0.452 | 0.535 | 0.621 | 0.606 | – | – | – | – | –
21 | NCI-H1792 | – | – | – | – | – | 0.451 | 0.448 | 0.337 | 0.351 | 0.3 | 0.256 | 0.188 | 0.346 | 0.269 | 0.212 | 1 | 0.96 | 0.966 | 0.525 | 0.954
